This note sets out measurements from ChEMBL document CHEMBL1201862, “PubChem BioAssay data set” (2004).

A word on the GI50: it is the concentration that inhibits growth by half.

Some test systems named below: NCI-H226; ACHN; HCT-116; CCRF-CEM; OVCAR-3; UACC-257; SF-295; K562; M19-MEL; SF-539; HL-60; UACC-62; SK-MEL-2; SF-268; NCI-H460; Malme-3M; DU-145; Hs-578T; BT-549; MDA-N.
Holding throughout (experiment): DTP human tumour cell line panel, 48 h

SMILES strings stand for the structures. Counter-ions that a name gives are not always drawn.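 Exposure lasted 48 hours, with cells grown in 96-well plates and compounds tested at five concentrations. At the GI50, growth is halved.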 Calls of active or inactive are those of the source. Rule as the data show it: active = GI50 up to about 1.1 µM and inactive = higher.

As for `Cc1ccc(Oc2ccc(C)cc2[N+](=O)[O-])cc1`, the GI50 was 57.5 µM (inactive) with NCI-H226; 69.2 µM (inactive) in the experiment with ACHN; 53.6 µM (inactive) with HCT-116; 36.7 µM (inactive) in the experiment on CCRF-CEM; 55.8 µM (inactive) in the experiment with OVCAR-3; 62.5 µM (inactive) in the experiment with UACC-257. The GI50 is > 100 µM (inactive) with SF-295; 38.5 µM (inactive) with K562; 79.4 µM (inactive) in the experiment with M19-MEL; > 100 µM (inactive) in the experiment with SF-539; 26.4 µM (inactive) in the experiment with HL-60; > 100 µM (inactive) with UACC-62. Also, the GI50 is > 100 µM (inactive) in the experiment on SK-MEL-2, > 100 µM (inactive) in the experiment with SF-268, 90.8 µM (inactive) with NCI-H460 and > 100 µM (inactive) with Malme-3M.
As for `CC(=O)Nc1ccc(-c2nnc(SCC(=O)Nc3ccccc3)o2)cc1`, the GI50 with NCI-H226 was 82.4 µM (inactive); with ACHN, > 100 µM (inactive); in the experiment with HCT-116, 31.2 µM (inactive); in the experiment on CCRF-CEM, 59.4 µM (inactive); in the experiment on OVCAR-3, > 100 µM (inactive); with UACC-257 it was 93.8 µM (inactive). For the same compound, the GI50 with SF-295 was 77.6 µM (inactive); in the experiment with K562, > 100 µM (inactive); in the experiment with M19-MEL, 74.8 µM (inactive); in the experiment with SF-539, 71.1 µM (inactive); in the experiment with HL-60 it was 89.1 µM (inactive); with UACC-62, 54.5 µM (inactive). The GI50 in the experiment with SK-MEL-2, with SF-268, in the experiment on NCI-H460 and in the experiment on Malme-3M was > 100 µM (inactive) each time.
Turning to `COC(=O)C1CC2(c3ccccc3)C(=O)c3ccccc3N2O1` (centres undefined), the GI50 in the experiment on NCI-H226 is > 100 µM (inactive); with ACHN, 49.2 µM (inactive); in the experiment on HCT-116, 46.9 µM (inactive); with CCRF-CEM it was 30.3 µM (inactive); in the experiment with OVCAR-3, 70.6 µM (inactive); in the experiment with UACC-257 it was > 100 µM (inactive). In addition, the GI50 with SF-295 is > 100 µM (inactive); in the experiment with K562, 31.8 µM (inactive); with M19-MEL, 64.4 µM (inactive); with SF-539 it was 67 µM (inactive); in the experiment on HL-60 it was 28.9 µM (inactive); in the experiment with UACC-62, 34 µM (inactive). Moreover, the GI50 in the experiment with SK-MEL-2 was 39.3 µM (inactive); with SF-268, > 100 µM (inactive); in the experiment on NCI-H460, 47.3 µM (inactive); in the experiment on Malme-3M, > 100 µM (inactive).
As to `Cc1ccc(NC(=O)/C(CC(=O)c2c[n+]([O-])c3ccccc3[n+]2[O-])=N\NC(=O)C[n+]2ccccc2)cc1`, the GI50 in the experiment on NCI-H226, with ACHN, in the experiment on HCT-116, in the experiment with CCRF-CEM, in the experiment with OVCAR-3 and with UACC-257 was > 100 µM (inactive) throughout. For the same compound, the GI50 in the experiment with SF-295 was > 100 µM (inactive); with K562, 48.6 µM (inactive); with M19-MEL, > 100 µM (inactive); in the experiment on SF-539, > 100 µM (inactive); in the experiment on HL-60 it was 35 µM (inactive); with UACC-62, > 100 µM (inactive). Further, the GI50 with SK-MEL-2, in the experiment on SF-268, with NCI-H460 and with Malme-3M was > 100 µM (inactive) each time.
Take `CS(=O)(=O)OCCN(CCOS(C)(=O)=O)c1ccc(/C=N/c2ccc(-c3csc(COc4ccccc4)n3)cc2)cc1`: the GI50 in the experiment with NCI-H226 is 2.66 µM (inactive); with ACHN it was 0.407 µM (active); with HCT-116 it was 12.6 µM (inactive); with CCRF-CEM, 0.587 µM (active); with DU-145, 1.64 µM (inactive); in the experiment with OVCAR-3 it was 1.24 µM (inactive). Further, the GI50 in the experiment on Hs-578T was 15.1 µM (inactive); in the experiment on BT-549, 10.7 µM (inactive); with UACC-257, 10.2 µM (inactive); with MDA-N it was 11 µM (inactive); with SF-295 it was 0.807 µM (active); in the experiment with K562 it was 5.02 µM (inactive). Besides, the GI50 was 13.4 µM (inactive) in the experiment with M19-MEL; 2.86 µM (inactive) with SF-539; 0.817 µM (active) in the experiment with HL-60; 1.87 µM (inactive) in the experiment on UACC-62; 15.7 µM (inactive) with SK-MEL-2; 2.49 µM (inactive) with SF-268. The figures for the GI50 in the experiment with NCI-H460 and in the experiment with Malme-3M were 0.0708 µM (active) and 12.8 µM (inactive), respectively.
With `O=C1c2c(O)cccc2-c2nn(CCNCCO)c3ccc(NCCNCCO)c1c23` [LOSOXANTRONE HYDROCHLORIDE], the GI50 with NCI-H226 is < 0.0171 µM (active); with ACHN it was 0.0337 µM (active); in the experiment with HCT-116, 0.043 µM (active); in the experiment with CCRF-CEM it was < 0.01 µM (active); in the experiment with DU-145, < 0.01 µM (active); in the experiment on OVCAR-3 it was 0.598 µM (active). For the same compound, the concentration for 50% growth inhibition (GI50) with Hs-578T is 0.0791 µM (active); in the experiment on BT-549, 0.182 µM (active); in the experiment on UACC-257 it was 1.6 µM (inactive); with MDA-N, 0.48 µM (active); with SF-295 it was 0.0236 µM (active); with K562 it was 0.238 µM (active). Also, the GI50 in the experiment on M19-MEL is 0.16 µM (active); in the experiment on SF-539 it was 0.0288 µM (active); in the experiment on HL-60 it was < 0.01 µM (active); in the experiment with UACC-62 it was < 0.0451 µM (active); in the experiment on SK-MEL-2, 0.436 µM (active); in the experiment with SF-268 it was 0.0316 µM (active). Also, the results for the GI50 in the experiment with NCI-H460 and in the experiment with Malme-3M were < 0.01 µM (active) and 0.123 µM (active), respectively.
